For five compounds, TGI and GI50 results are on record in PubChem BioAssay (NCI).

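Cells were grown in 96-well plates and exposed to each compound for 48 hours at five concentrations; endpoints were interpolated linearly between bracketing concentrations, or set to the highest concentration if not reached. GI50 marks 50% less growth. TGI: total growth inhibition.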 Some results are limits rather than exact numbers.

Common to all, as to assay: NCI tumour cell line growth inhibition, 48 h
For assay [1], the system named is SNB-19 CNS.
Assay [2] deals with SR leukemia.
The test system of assay [3] is SF-539 CNS.
Assay [4] has as its system LOX IMVI melanoma.
Assay [5] deals with OVCAR-8 ovarian.
Assay [6] deals with NCI-H522 lung.
The subject of assay [7] is MOLT-4 leukemia.
The test system of assay [8] is NCI-H23 lung.
Assay [9] deals with HCT-15 colon.
For assay [10], the system named is CCRF-CEM leukemia.
Assay [11] concerns SK-OV-3 ovarian.

Take `O=C(N/N=C/C=C/c1ccccc1)[C@H](O)[C@@H](O)C(=O)N/N=C/C=C/c1ccccc1`: the TGI in assay [1], in assay [2], in assay [3], in [4], in assay [5] and in assay [6] was greater than 100 µM in each case. For the same compound, the TGI in [7], in assay [8], in assay [9] and in [10] was greater than 100 µM each time.
For the compound `COc1ccc(CC2CCc3nc(N)nc(N)c3C2)cc1OC` (stereo not drawn), the TGI is greater than 100 µM in [11]; greater than 89 µM in assay [1]; greater than 100 µM in assay [2]; greater than 40.5 µM in assay [3]; 21.1 µM in assay [4]; greater than 62.5 µM in assay [5]. The TGI is 12.6 µM in assay [6], greater than 100 µM in assay [7], greater than 50 µM in assay [8] and 98 µM in [9].
Consider `CCN(CCO)C(=O)C1(c2ccccc2)CCCCC1`, for which the TGI in [11], in assay [1], in assay [2], in assay [3], in assay [4] and in assay [5] was greater than 10 µM throughout. In addition, the TGI in [6], in assay [7], in assay [8], in [9] and in assay [10] was greater than 10 µM in each case.
Regarding `C[C@]12CC[C@H](OC(=O)Cc3ccc(N(CCCl)CCCl)cc3)CC1=CC[C@@H]1[C@@H]2CC[C@]2(C)C(=O)CC[C@@H]12`, the TGI in assay [1], in [2], in [3], in assay [4], in [5] and in assay [6] was greater than 100 µM throughout. The TGI in assay [7], in [8] and in [9] was greater than 100 µM in each case.
As for `OCCCNc1nc(=S)[nH]c2[nH]ncc12`, the GI50 in assay [11] is 48.7 µM; in assay [1], greater than 100 µM; in [3], 23.3 µM; in assay [4], 25.4 µM; in [5] it was 37.8 µM; in [6], 26.1 µM. Moreover, the GI50 in assay [8] is 51.7 µM; in assay [9], 81.9 µM; in assay [10] it was 34.7 µM. In addition, the TGI in assay [11] was greater than 100 µM; in assay [1] it was greater than 100 µM; in assay [3], greater than 100 µM; in assay [4], 84.5 µM; in [5], greater than 100 µM; in assay [6], greater than 100 µM. Also, the TGI in [8], in [9] and in assay [10] was greater than 100 µM in each case.
